Test results as given in patent US8609667B2, “E-type phenyl acrylic ester compounds containing substituted anilino pyrimidine group and uses thereof” (Sinochem Corporation, priority 2009, dated 2013).
Where two headings read alike, the source gives them in different places.

Legend:
citrus red mite = assay: Field trial against citrus red mite (Guilin, China); type: in vivo
Protocol: Field Trial Against Citrus Red Mite (Guilin, China)
The trial was carried out in a 2-year-old Shatang orange orchard in Chaotian town lingchuan county guilin city, trifoliate orange trees were selected as stocks, the intervals between two plants was 1.5×2.5 m, the average height was 1.45 m and the crown width was 1.30 m. Two trees were selected in each plot, with random arrangement and 4 replications. Compound 9 (15% SC) was set at two different doses (100 mg/L and 25 mg/L), and spirodiclofen (24% SC) was set at one dose (48 mg/L). Matabi Supergreen 16 Knapsack Sprayer 16 Liter was used to spray evenly with 2 L of spaying volume for each plant. The plants were treated once on 30 Oct. 2009, at that time, adults, nymphs and eggs of citrus red mite all existed, with adults/eggs=1/1.27. During the day the plants were treated, and the weather was good with the average temperature at 23° C. The first three days after treatment were all clear days. The number of mites was investigated before treatment and on the 1st, 3rd, 10th, 15th, 20th and 30th day after treatment respectively. Two trees of each plot were investigated according to the five directions of the tree crown (east, south, west, north and central), 5 leaves in each direction were investigated to calculate the number of living mites, with 50 leaves each plot. The decline rate of mite population and corrected efficacy were calculated according to formulas below: The decline rate of mite population(%)=[(the average number of mite on each leaf before treatment−the average number of mite on each leaf after treatment)/the average number of mite on each leaf before treatment]×100. Corrected efficacy(%)=[(the decline rate of mite population in treated area−the decline rate of mite population in untreated area)/(100−the decline rate of mite population in untreated area)]×100.

[1] = system: adults of Tetranychus cinnabarinus; assay: Acaricidal activity against adults in greenhouse (spray on broadbean shoots, mortality after 72 hrs); type: in vivo; details: for control against adults of Tetranychus cinnabarinus: spray, 72 hrs
Protocol: (§1) The activity determinations of compounds of the present invention against adults, nymphs and eggs of Tetranychus cinnabarinus were carried out in greenhouse by the following procedures:
The activity determination against adults in greenhouse: the compounds were weighed and dissolved in acetone to obtain mother liquid, and then the mother liquid was diluted to required concentration with placed running water containing 0.1% of Tween 80. Broadbean shoots with two true leaves were used to inoculate adults of Tetranychus cinnabarinus which were counted, spraying treatment was performed by portable sprayer (DeVilbiss Atomizer M163), 3 replicates were set for each treatment. After treatment the broadbean shoots were maintained in standard observation room. Scores were conducted and mortalities were calculated after 72 hrs.

[2] = system: nymphs of Tetranychus cinnabarinus; assay: Acaricidal activity against nymphs in greenhouse (spray, mortality after 72 hrs); type: in vivo
Protocol: as §1
The activity determination against nymphs in greenhouse: broadbean shoots with two true leaves in pot were taken, ten healthy female adults of Tetranychus cinnabarinus were inoculated to the leaves, the adults were removed after 24 hrs and the eggs were cultivated into nymphs after 7-10 days. The nymphs were counted and then sprayed. 3 replicates were set for each treatment. And then were maintained in standard observation room. Scores were conducted and mortalities were calculated after 72 hrs.

[3] = system: eggs of Tetranychus cinnabarinus; assay: Activity against eggs in greenhouse (hatching inhibition rate); type: in vivo; details: Tetranychus cinnabarinus
Protocol: as §1
The activity determination against eggs in greenhouse: Broadbean shoots in pot with one true leaf retained were taken, ten healthy female adults of Tetranychus cinnabarinus were inoculated to the leaves, the adults were removed after 24 hrs and the eggs were counted and then sprayed. The treatment of test compounds and spaying method were the same as that of the activity determination in greenhouse against adults. Once eggs of blank control were all hatched after 5 days, unhatched eggs in each treatment were investigated and the hatching inhibition rate were calculated.

## CO/C=C(/C(=O)OC)c1ccccc1COc1nc(Nc2ccc(F)cc2F)nc2c1CCC2 [Compound 96]
other
  melting point: 106 to 108 °C

## CO/C=C(/C(=O)OC)c1ccccc1COc1nc(Nc2cccc(Cl)c2Cl)nc2c1CCC2 [Compound 128]
other
  melting point: 132 to 134 °C

## CO/C=C(/C(=O)OC)c1ccccc1COc1nc(Nc2ccc(Cl)c(C)c2Cl)nc2c1CCC2 [Compound 105]
other
  melting point: 150 to 151 °C

## CO/C=C(/C(=O)OC)c1ccccc1COc1cc(C(F)(F)F)nc(Nc2ccc(Cl)cc2Cl)n1 [Compound 9]
Citrus red mite; 25 mg/L (15% SC), the 1st day after treatment
  Corrected efficacy (%): 90%
Citrus red mite; 25 mg/L (15% SC), the 3rd day after treatment
  Corrected efficacy (%): 92%
Citrus red mite; 25 mg/L (15% SC), the 10th day after treatment
  Corrected efficacy (%): 83%
Citrus red mite; 25 mg/L (15% SC), the 15th day after treatment
  Corrected efficacy (%): 91%
Citrus red mite; 25 mg/L (15% SC), the 20th day after treatment
  Corrected efficacy (%): 92%
Citrus red mite; 25 mg/L (15% SC), the 30th day after treatment
  Corrected efficacy (%): 91%
Citrus red mite; 100 mg/L (15% SC), the 1st day after treatment
  Corrected efficacy (%): 92%
Citrus red mite; 100 mg/L (15% SC), the 3rd day after treatment
  Corrected efficacy (%): 96%
Citrus red mite; 100 mg/L (15% SC), the 10th day after treatment
  Corrected efficacy (%): 96%
Citrus red mite; 100 mg/L (15% SC), the 15th day after treatment
  Corrected efficacy (%): 95%
Citrus red mite; 100 mg/L (15% SC), the 20th day after treatment
  Corrected efficacy (%): 97%
Citrus red mite; 100 mg/L (15% SC), the 30th day after treatment
  Corrected efficacy (%): 94%
[1]; Tetranychus cinnabarinus, 0.625 mg/L, Table 7, read-out: mortalities of adults of Tetranychus cinnabarinus (%)
  mortality at 0.625 µg/mL: 88%
[1]; Tetranychus cinnabarinus, 1.25 mg/L, Table 7, read-out: mortalities of adults of Tetranychus cinnabarinus (%)
  mortality at 1.25 µg/mL: 90%
[1]; Tetranychus cinnabarinus, 2.5 mg/L, Table 7, read-out: mortalities of adults of Tetranychus cinnabarinus (%)
  mortality at 2.5 µg/mL: 98%
[1]; Tetranychus cinnabarinus, 5 mg/L, Table 7, read-out: mortalities of adults of Tetranychus cinnabarinus (%)
  mortality at 5 µg/mL: 100%
[1]; Tetranychus cinnabarinus, 10 mg/L, Table 7, read-out: mortalities of adults of Tetranychus cinnabarinus (%)
  mortality at 10 µg/mL: 100%
[1]; Tetranychus cinnabarinus, 40 mg/L, Table 7, read-out: mortalities of adults of Tetranychus cinnabarinus (%)
  mortality at 40 µg/mL: 100%
[1]; dose 5 mg/L
  control against adults of Tetranychus cinnabarinus: 100%
[1]; dose 10 mg/L
  control against adults of Tetranychus cinnabarinus: 100%
[1]; dose 40 mg/L
  control against adults of Tetranychus cinnabarinus: 100%
[1]; dose 100 mg/L
  control against adults of Tetranychus cinnabarinus: 100%
[2]; dose 0.63 mg/L
  control against nymphs of Tetranychus cinnabarinus: more than 95%
[2]; dose 2.5 mg/L
  control against nymphs of Tetranychus cinnabarinus: 100%
[3]; 0.625 mg/L, Table 8, read-out: hatching inhibition rate against eggs (%)
  inhibition at 0.625 µg/mL: 20%
[3]; 2.5 mg/L, Table 8, read-out: hatching inhibition rate against eggs (%)
  inhibition at 2.5 µg/mL: 100%
[3]; 10 mg/L, Table 8, read-out: hatching inhibition rate against eggs (%)
  inhibition at 10 µg/mL: 100%
[3]; dose 2.5 mg/L, read-out: hatching inhibition rate against eggs of Tetranychus cinnabarinus
  inhibition at 2.5 µg/mL: ≥ 90%
[3]; dose 10 mg/L, read-out: hatching inhibition rate against eggs of Tetranychus cinnabarinus
  inhibition at 10 µg/mL: 100%

## CO/C=C(/C(=O)OC)c1ccccc1COc1nc(Nc2ccc(Cl)cc2Cl)nc2c1CCC2 [Compound 97]
other
  melting point: 150 to 151 °C

## CO/C=C(/C(=O)OC)c1ccccc1COc1nc(Nc2ccc(F)c(F)c2F)nc2c1CCC2 [Compound 103]
other
  melting point: 118 to 120 °C
